Results as given in patent US5578596A, “2-alkoxy-5,6,7,8-tetrahydroquinoxaline derivatives, and production method and use thereof” (Asahi Kasei Kogyo Kabushiki Kaisha, priority 1992, dated 1996).

Columns and labels:
[1] = target: T1, serotonin 1A (5HT1A) receptor (Rattus norvegicus, UniProt P19327); experiment: Affinity for serotonin 1A (5HT1A) receptor: inhibition of 3H-8-OH-DPAT binding to rat hippocampal membrane fraction; conditions: test compound as hydrochloride
T1 construct: The resultant precipitate was used as a rat hippocampal membrane fraction in the following procedures; from tissue; host or cells: hippocampal membrane fraction of male SD rat (7 weeks old; animals from Charles River)
T1 sequence (P19327 1-422): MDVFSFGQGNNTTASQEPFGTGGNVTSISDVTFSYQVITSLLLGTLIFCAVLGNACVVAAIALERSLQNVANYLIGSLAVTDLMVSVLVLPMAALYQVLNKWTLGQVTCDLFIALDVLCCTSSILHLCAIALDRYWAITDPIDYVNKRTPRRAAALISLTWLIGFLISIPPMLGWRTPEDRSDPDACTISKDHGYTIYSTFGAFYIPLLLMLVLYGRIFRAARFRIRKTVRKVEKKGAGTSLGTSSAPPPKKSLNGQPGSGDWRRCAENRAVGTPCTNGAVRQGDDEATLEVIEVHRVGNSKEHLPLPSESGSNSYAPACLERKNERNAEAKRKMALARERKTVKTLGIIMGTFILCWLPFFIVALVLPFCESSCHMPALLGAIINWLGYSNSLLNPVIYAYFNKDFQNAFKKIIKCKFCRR
Experimental: 1. Affinity for serotonin 1A (5HT1A) receptor
(A) Preparation of rat hippocampal membrane fraction
A male SD strain rat (7-week old; Charles River) was decapitated, and brain was taken out therefrom quickly. 50 mM Tris-HCl buffer (pH 7.4) was added to the brain under ice cooling to obtain a suspension. The resultant suspension was homogenized, and then subjected to centrifugation at 48000 g for 15 minutes, to thereby obtain a precipitate. The precipitate was resuspended in the same Tris-HCl buffer as used above. The resultant suspension was incubated at 30° C. for 20 minutes to decompose endogenous serotonin of the rat hippocampal membrane, followed by centrifugation at 48000 g for 15 minutes to thereby obtain a precipitate. The resultant precipitate was used as a rat hippocampal membrane fraction in the following procedures.
(B) Method for the evaluation of the binding ability of ^3 H-8-hydroxy-dipropylaminotetralin (^3 H-8-OH-DPAT) to serotonin 1A receptor
The rat hippocampal membrane fraction prepared in step (A) above (about 100 to 200 μg in terms of proteins) was reacted with 0.5 nM (final concentration) ^3 H-8-OH-DPAT (which is commercially available from DuPont-NEN Research Products) and 10 μM (final concentration) pargyline (which is commercially available from Sigma Chemical Company) at 30° C. for 30 minutes to effect a reaction. The resultant reaction mixture was subjected to suction filtration using a Whatman GF/C filter, to thereby terminate the reaction. The radio-activity of ^3 H-8-OH-DPAT adsorbed on the filter was determined using a liquid scintillation counter. The obtained value is regarded as a total amount (TB) of specifically binding ^3 H-8-OH-DPAT and non-specifically binding ^3 H-8-OH-DPAT.
On the other hand, substantially the same procedure as mentioned above was repeated, except that 10 μM (final concentration) serotonin was added to the ^3 H-8-OH-DPAT and pargyline. The radioactivity of ^3 H-8-OH-DPAT adsorbed on the filter was determined in the same manner as mentioned above. The obtained value is regarded as the amount (NB) of non-specifically binding ^3 H-8-OH-DPAT.
Further, substantially the same procedure as mentioned above was repeated, except that, instead of serotonin, a test compound was used in a predetermined concentration. The radioactivity of ^3 H-8-OH-DPAT adsorbed on the filter was determined in the same manner as mentioned above. The obtained value is regarded as the amount (DTB) of binding ^3 H-8-OH-DPAT.
(C) Calculation of Ki value
The inhibition ratio of the test compound (at a certain concentration) against the binding of 3H-8-OH-DPAT (the inhibition ratio is hereinafter referred to simply as "binding inhibition ratio") was calculated according to the following formula:
Binding inhibition ratio (%)=100-(DTB-NB).div.(TB-NB)×100
With respect to each of the test compounds, the binding inhibition ratios at various concentrations (from a higher concentration to a lower concentration) were determined. The binding inhibition ratios were plotted, taking the logarithmic value of the concentration of test compound as the abscissa value, and the binding inhibition ratio as the ordinate value. Then, a curve was drawn by non-linear least square method.
The Ki value was determined according to the following formula:
[L] is the concentration (0.2 nM) of a radioactive ligand (^3 H-8-OH-DPAT) used in the test;

[2] = tested on: Suncus murinus (motion sickness emesis); experiment: Activities against motion sickness: acceleration-stimulus induced emesis in suncus; type: in vivo; conditions: 30 min before acceleration-stimulus (4 cm, 1 Hz), observed 10 min, hydrochloride, 4 suncus
Source text: The activities of individual compounds against motion sickness were examined using Suncus murinus. Suncus murinus is a small animal belonging to the Soricidae family. It has been known that suncus is likely to suffer from motion sickness and is susceptible to occurrence of emesis [see "Seitai-no-kagaku (Science of living body)", 41, 538 (1990)]. Suncus is likely to show symptoms like the symptoms of human motion sickness under the stimulus of simple acceleration, finally leading to the occurrence of emesis. It has been recognized that motion sickness is caused by the occurrence of disorder in information, such as vision, equilibrium sense and the like, or by a stimulus which has never been memorized. Further, it has been recognized that the disorder in the inner earvestibular nucleus pathway and the high-order function of brain take part in the occurrence of motion sickness. Therefore, medicines capable of suppressing the occurrence of emesis of suncus would be useful for preventing and treating motion sickness, space sickness, emesis, dizziness and the like.
In this test, test compounds were individually administered intraperitoneally to suncus.
The time for occurrence of emesis was measured with respect to each of the test compounds, and the results are shown in Table 3.

Cc1nc2c(nc1OCCCCN1CCN(c3ncccn3)CC1)CCCC2 [Compound 410]
Ki [1]: 24 nM

COc1cc(C)nc(N2CCN(CCCCOc3cnc4c(n3)CCCC4)CC2)n1 [Compound 562, 2-[4-{4-(4-Methoxy-6-methyl-2-pyrimidinyl)-1-piperazinyl}butoxy]-5,6,7,8-tetrahydroquinoxaline]
Time for occurrence of emesis ([2]; 3 mg/kg intraperitoneal): Emesis did not occur | Ki [1]: 11 nM

c1ccc(N2CCN(CCCCCOc3cnc4c(n3)CCCC4)CC2)nc1 [Compound 511, 2-[5-{4-(2-Pyridyl)-1-piperazinyl}pentoxy]-5,6,7,8-tetrahydroquinoxaline]
Ki [1]: 8.4 nM

Cc1ccnc(N2CCN(CCCCOc3cnc4c(n3)CCCC4)CC2)n1 [Compound 504, 2-[4-{4-(4-Methyl-2-pyrimidinyl)-1-piperazinyl}butoxy]-5,6,7,8-tetrahydroquinoxaline]
Time for occurrence of emesis ([2]; 1 mg/kg intraperitoneal): Emesis did not occur | Ki [1]: 3.9 nM

Clc1cccc(N2CCN(CCCCOc3cnc4c(n3)CCCC4)CC2)n1 [Compound 500, 2-[4-{4-(6-Chloro-2-pyridyl)-1-piperazinyl}butoxy]-5,6,7,8-tetrahydroquinoxaline]
Time for occurrence of emesis ([2]; 1 mg/kg intraperitoneal): Emesis did not occur | Ki [1]: 2.1 nM

Cc1cc(C)nc(N2CCN(CCCCOc3cnc4c(n3)CCCC4)CC2)n1 [Compound 481, 2-[4-{4-(4,6-Dimethyl-2-pyrimidinyl)-1-piperazinyl}butoxy]-5,6,7,8-tetrahydroquinoxaline]
Ki [1]: 5.3 nM

c1ccc(N2CCN(CCCOc3cnc4c(n3)CCCC4)CC2)nc1 [Compound 537, 2-[3-{4-(2-Pyridyl)-1-piperazinyl}propoxy]-5,6,7,8-tetrahydroquinoxaline]
Ki [1]: 14 nM

c1cnc(N2CCN(CCCCOc3cnc4c(n3)CCCC4)CC2)nc1 [Compound 301, 2-[4-{4-(2-Pyrimidinyl)-1-piperazinyl}butoxy]-5,6,7,8-tetrahydroquinoxaline]
Time for occurrence of emesis ([2]; 3 mg/kg intraperitoneal): Emesis did not occur | Ki [1]: 6 nM

Cc1cc(C)c(C#N)c(N2CCN(CCCCOc3cnc4c(n3)CCCC4)CC2)n1 [Compound 561, 2-[4-{4-(3-Cyano-4-6-dimethyl-2-pyridyl)-1-piperazinyl}butoxy]-5,6,7,8-tetrahydroquinoxaline]
Ki [1]: 16 nM

c1cnc(N2CCN(CCCOc3cnc4c(n3)CCCC4)CC2)nc1 [Compound 538, 2-[3-{4-(2-pyrimidinyl)-1-piperazinyl}propoxyl]-5,6,7,8-tetrahydroquinoxaline]
Ki [1]: 25 nM

COc1cccc(N2CCN(CCCCOc3cnc4c(n3)CCCC4)CC2)n1 [Compound 539, 2-[4-{4-(6-Methoxy-2-pyridyl)-1-piperazinyl}butoxy]-5,6,7,8-tetrahydroquinoxaline]
Time for occurrence of emesis ([2]; 1 mg/kg intraperitoneal): Emesis did not occur | Ki [1]: 1.3 nM

Cc1nc2c(nc1OCCCCN1CCN(c3ccccn3)CC1)CCCC2 [Compound 409]
Ki [1]: 16 nM

Clc1cccnc1N1CCN(CCCCOc2cnc3c(n2)CCCC3)CC1 [Compound 502, 2-[4-{4-(3-Chloro-2-pyridyl)-1-piperazinyl}butoxy]-5,6,7,8-tetrahydroquinoxaline]
Ki [1]: 13 nM

Cc1ccc(C)c(N2CCN(CCCCOc3cnc4c(n3)CCCC4)CC2)n1 [Compound 598, 2-[4-{4-(3,6-Dimethyl-2-pyridyl)-1-piperazinyl}butoxy]-5,6,7,8-tetrahydroquinoxaline]
Ki [1]: 25 nM

CC(C)Oc1cccc(N2CCN(CCCCOc3cnc4c(n3)CCCC4)CC2)n1 [Compound 630, 2-[4-{4-(6-Isopropoxy-2-pyridyl)-1-piperazinyl}butoxy]-5,6,7,8-tetrahydroquinoxaline]
Time for occurrence of emesis ([2]; 3 mg/kg intraperitoneal): Emesis did not occur | Ki [1]: 3 nM

Cc1cccc(N2CCN(CCCCOc3cnc4c(n3)CCCC4)CC2)n1 [Compound 501, 2-[4-{4-(6-Methyl-2-pyridyl)-1-piperazinyl}butoxy]-5,6,7,8-tetrahydroquinoxaline]
Time for occurrence of emesis ([2]; 1 mg/kg intraperitoneal): Emesis did not occur | Ki [1]: 0.6 nM

c1cnc(N2CCN(CCCCCOc3cnc4c(n3)CCCC4)CC2)nc1 [Compound 512, 2-[5-{4-(2-pyrimidinyl)-1-piperazinyl}pentoxy]-5,6,7,8-tetrahydroquinoxaline]
Ki [1]: 23 nM

FC(F)(F)c1ccnc(N2CCN(CCCCOc3cnc4c(n3)CCCC4)CC2)c1 [Compound 639, 2-[4-{4-(4-Trifluoromethyl-2-pyridyl)-1-piperazinyl}butoxy]-5,6,7,8-tetrahydroquinoxaline]
Ki [1]: 11 nM

COc1cc(OC)nc(N2CCN(CCCCOc3cnc4c(n3)CCCC4)CC2)n1 [Compound 549, 2-[4-{4-(4,6-Dimethoxy-2-pyrimidinyl)-1-piperazinyl}butoxy]-5,6,7,8-tetrahydroquinoxaline]
Ki [1]: 6.6 nM

CCCOc1cccc(N2CCN(CCCCOc3cnc4c(n3)CCCC4)CC2)n1 [Compound 629, 2-[4-{4-(6-Propoxy-2-pyridyl)-1-piperazinyl}butoxy]-5,6,7,8-tetrahydroquinoxaline]
Time for occurrence of emesis ([2]; 3 mg/kg intraperitoneal): Emesis did not occur | Ki [1]: 1.8 nM

Cc1cc(C)nc(N2CCN(CCCCOc3cnc4c(n3)CCCC4)CC2)c1 [Compound 569, 2-[4-{4-(4,6-Dimethyl-2-pyridyl)-1-piperazinyl}butoxy]-5,6,7,8-tetrahydroquinoxaline]
Ki [1]: 6.8 nM

COc1cccnc1N1CCN(CCCCOc2cnc3c(n2)CCCC3)CC1 [Compound 557, 2-[4-{4-(3-Methoxy-2-pyridyl)-1-piperazinyl}butoxy]-5,6,7,8-tetrahydroquinoxaline]
Ki [1]: 1.5 nM

N#Cc1cccnc1N1CCN(CCCCOc2cnc3c(n2)CCCC3)CC1 [Compound 514, 2-[4-{4-(3-Cyano-2-pyridyl)-1-piperazinyl}butoxy]-5,6,7,8-tetrahydroquinoxaline]
Ki [1]: 4.8 nM

FC(F)(F)c1cccc(N2CCN(CCCCOc3cnc4c(n3)CCCC4)CC2)n1 [Compound 640, 2-[4-{4-(6-Trifluoromethyl-2-pyridyl)-1-piperazinyl}butoxy]-5,6,7,8-tetrahydroquinoxaline]
Ki [1]: 5.2 nM

CCOc1cccc(N2CCN(CCCCOc3cnc4c(n3)CCCC4)CC2)n1 [Compound 524, 2-[4-{4-(6-Ethoxy-2-pyridyl)-1-piperazinyl}butoxy]-5,6,7,8-tetrahydroquinoxaline]
Time for occurrence of emesis ([2]; 1 mg/kg intraperitoneal): Emesis did not occur | Ki [1]: 1.9 nM
